# According to patent US20260027071A1, “COMPOSITION FOR PROMOTING COLLAGEN PRODUCTION COMPRISING AMIDATED AMINO ACID” (KYUNGPOOK NATIONAL UNIVERSITY INDUSTRY-ACADEMIC COOPERATION …, priority 2022, published 2026):
# Entries after “also recorded” stand apart in the source; their conditions may differ. Peptide text beside a SMILES is read from it.
# Columns and labels:
# human dermal fibroblasts = assay: Wound healing (wound closure) assay, Oris cell migration kit; assay type: cell-based; conditions: HDF
# Method: Wound closure analysis was performed using the Oris™ Universal Cell Migration Assembly kit (Platinus Technologies, WI, USA) according to the manufacturer's instructions. The Oris™ stoppers were inserted into each well of the Oris™-compatible 96-well plate, and the plate was inverted to check for complete stopper attachment. A suspension of human dermal fibroblasts in IMDM was added to each well (1×10^4 cells in 100 μL per well) and incubated for 12 hours to allow cell attachment. Then, the stoppers were removed using the stopper tool, and the medium was aspirated using a pipette. The wells were gently washed with 100 μL PBS to remove unattached cells, and the attached cells were treated with drugs in 100 μL culture medium for the specified time, respectively. Images of the wounds were obtained using a phase-contrast microscope (Eclipse TS 100, Nikon Instruments Inc., Melville, NY, USA). The wound areas in the images were quantified using the NIH Image J program. Wound closure (%) was calculated using the following equation: Wound closure (%)=[(A0−At)/A0]×100, where A0 is the area of the original wound and At is the wound area measured at the specified time.
# [1] = test system: Human dermal fibroblasts (HDF); assay: Collagen protein in conditioned media (Sircol Collagen Assay) of human dermal fibroblasts; assay type: cell-based; conditions: for change in collagen production induced by individual treatment / change in collagen production induced by combined treatment with glycinamide: FIG. 7b; for change in collagen production induced by individual treatment: concentration not given; for change in collagen production induced by combined treatment with glycinamide: ascorbic acid analog combined with glycinamide; for collagen production (collagen levels secreted into the media): HDF treated at 1 mM, result in words
# Method: The collagen protein levels in the conditioned media were evaluated using the Sircol™ Collagen Assay (Biocolor, Antrim, UK) according to the manufacturer's instructions. […] After discarding the media, the cells were washed with 500 μL of phosphate-buffered saline (PBS), then incubated in 1 mL of serum-free media for another 24 hours. A 1.0 mL media sample (either conditioned media or fresh media as a negative control) was transferred to a microcentrifuge tube, mixed with 100 μL of collagen isolation and concentration reagent, and incubated overnight at 4° C. The samples were centrifuged at 13,000×g for 10 minutes at 4° C., and the supernatant was carefully removed using a pipette without disturbing the pellet. Each tube was then added with 500 μL of Sircol dye reagent, inverted five times, and shaken at room temperature for 30 minutes. After centrifugation, the supernatant was discarded, and the pellet was washed with 500 μL of cold acid-salt washing reagent, followed by another centrifugation step. The pellet was then dissolved in 250 μL of alkali reagent, and a 200 μL portion was transferred to a 96-well plate. The optical density of the solution was read at 555 nm using a Spectrostar Nano microplate reader (BMG LABTECH GmbH, Ortenberg, Germany).
# [2] = test system: Human dermal fibroblasts (HDF); assay: Cell viability / proliferation (MTT assay) in human dermal fibroblasts; conditions: for cell proliferation effect of TGF-β1: HDF, analog combined with TGF-β1 (FIG. 7c); for cell viability: HDF treated at 1 mM, result in words
# Method: (§1) Human dermal fibroblasts (HDF) extracted from adult skin were obtained from Cascade Biologics (Portland, OR, USA), and human articular chondrocytes (HAC), human follicle dermal papilla cells (HFCPC), human aortic endothelial cells (HAoEC), and human osteoblasts (HOB) were obtained from PromoCell (Heidelberg, Germany). The cells were cultured in a closed incubator at 37° C. in humidified air comprising 5% CO2. The growth medium for HDF consisted of Iscove's Modified Dulbecco's Medium (IMDM) (Gibco BRL, Grand Island, NY, USA) supplemented with 10% fetal bovine serum (Hyclone, South Logan, UT) and 1% antibiotics (100 U·mL^−1 penicillin, 0.1 mg·mL^−1 streptomycin).
# (§2) The cell viability was evaluated using the MTT assay. Briefly, HDF (1×10^4 cells per well), HAC (5×10^3 cells per well), HFDPC (1×10^4 cells per well), HAoEC (5×10^3 cells per well), and HOB (2×10^3 cells per well) were cultured in growth media in a 96-well culture plate for 24 hours, followed by treatment with each drug for 48 hours. After discarding the media, the cells were incubated at 37° C. for 2 hours in fresh growth media (100 μL) containing 1 mg·mL^−1 MTT (Amresco, Solon, OH, USA). The media was removed by aspiration, and the formazan dye accumulated inside the cells was dissolved in 100 μL of dimethyl sulfoxide. The absorbance of the solution was measured at 570 nm using a Spetrostar Nano microplate reader (BMG LABTECH GmbH, Ortenberg, Germany).
# [3] = test system: Human dermal fibroblasts (HDF); conditions: 48 h
# Method: as §1, §2
compound,measurement,setting,value
"O=C1O[C@H]([C@@H](O)CO)C(O)=C1O[C@H]1O[C@H](CO)[C@@H](O)[C@H](O)[C@H]1O [AG, ascorbyl 2-O-glucoside, reference compound]",wound closure,human dermal fibroblasts; early stage (24 hours),slightly promoted wound closure
same,wound closure,human dermal fibroblasts; later stages (36 and 48 hours),inhibited
same,change in collagen production induced by individual treatment,[1]; HDF,27.2%
same,change in collagen production induced by combined treatment with glycinamide,[1]; HDF,123.6%
same,cell proliferation effect of TGF-β1,[2],significantly reduced
"CCCCCCCCC(CCCCCC)C(=O)OC[C@H](OC(=O)C(CCCCCC)CCCCCCCC)[C@H]1OC(=O)C(OC(=O)C(CCCCCC)CCCCCCCC)=C1OC(=O)C(CCCCCC)CCCCCCCC (some centres unmarked) [ATI, ascorbyl tetraisopalmitate, reference compound]",wound closure,human dermal fibroblasts; early stage (24 hours),slightly promoted wound closure
same,wound closure,human dermal fibroblasts; later stages (36 and 48 hours),inhibited
same,change in collagen production induced by individual treatment,[1]; HDF,25.5%
same,change in collagen production induced by combined treatment with glycinamide,[1]; HDF,124.6%
same,cell proliferation effect of TGF-β1,[2],significantly reduced
"CCOC1=C(O)C(=O)O[C@@H]1[C@@H](O)CO [EAA, 3-O-ethyl ascorbic acid, reference compound]",wound closure,human dermal fibroblasts; early stage (24 hours),slightly promoted wound closure
same,wound closure,human dermal fibroblasts; later stages (36 and 48 hours),inhibited
same,change in collagen production induced by individual treatment,[1]; HDF,19.5%
same,change in collagen production induced by combined treatment with glycinamide,[1]; HDF,115.5%
same,cell proliferation effect of TGF-β1,[2],significantly reduced
"O=C1O[C@H]([C@@H](O)CO)C([O-])=C1OP(=O)([O-])[O-].O=C1O[C@H]([C@@H](O)CO)C([O-])=C1OP(=O)([O-])[O-].[Mg+2].[Mg+2].[Mg+2] [MAP, Magnesium ascorbyl phosphate, reference compound]",further enhancement of wound closure by combined treatment with glycinamide,human dermal fibroblasts; analog combined with glycinamide,further enhanced
same,wound closure,"human dermal fibroblasts; treated alone, up to 48 hours (FIG. 8b)",promoted wound closure to a similar extent as ascorbic acid
same,change in collagen production induced by individual treatment,[1]; HDF,25.3%
same,change in collagen production induced by combined treatment with glycinamide,[1]; HDF,118.4%
"CC(=O)NCC(=O)O [N-acetyl glycine, reference compound]",collagen production (collagen levels secreted into the media),[1],did not affect collagen production
"C[C@H](N)C(N)=O.Cl [alaninamide, L-Alaninamide HCl]",collagen production (collagen levels secreted into the media),[1],enhanced the collagen levels
"Cl.Cl.N=C(N)NCCC[C@H](N)C(N)=O [argininamide, L-Argininamide diHCl]",collagen production (collagen levels secreted into the media),[1],enhanced the collagen levels
C[C@H]1[C@H](C)CC[C@]2(C(=O)O)CC[C@]3(C)C(=CC[C@@H]4[C@@]5(C)C[C@@H](O)[C@H](O)[C@@](C)(CO)[C@@H]5CC[C@]43C)[C@H]12 [asiatic acid],collagen production,"[1]; HDF, 10 μM",decreased
same,concentrations that reduced cell viability,[3],above 300 μM
same,concentrations with no effect on cell viability,[3],below 100 μM
"Cl.NC(=O)C[C@H](N)C(N)=O [asparaginamide, L-Asparaginamide HCl]",collagen production (collagen levels secreted into the media),[1],no significant effect
"Cl.NC(=O)[C@@H](N)CC(=O)O [aspartic acid α-amide, L-Aspartic acid α-amide HCl]",collagen production (collagen levels secreted into the media),[1],no significant effect
same,cell viability,[2],reducing effect
"Cl.NC(=O)[C@@H](N)CS [cysteinamide, L-Cysteinamide HCl]",collagen production (collagen levels secreted into the media),[1],enhanced the collagen levels
"NC(=O)[C@@H](N)CCC(=O)O [glutamic acid α-amide, L-Glutamic acid α-amide]",collagen production (collagen levels secreted into the media),[1],enhanced the collagen levels
"Cl.NC(=O)CC[C@H](N)C(N)=O [glutaminamide, L-Glutaminamide HCl]",collagen production (collagen levels secreted into the media),[1],enhanced the collagen levels
"NC(=O)CC[C@H](N)C(=O)O [glutamine, L-Glutamine, reference compound]",collagen production (collagen levels secreted into the media),[1],increased collagen
"CCOC(=O)CN.Cl [glycine ethyl ester, glycine ethyl ester HCl, reference compound]",collagen production (collagen levels secreted into the media),[1],did not affect collagen production
"COC(=O)CN.Cl [glycine methyl ester, glycine methyl ester HCl, reference compound]",collagen production (collagen levels secreted into the media),[1],somewhat reducing effect
"NCC(=O)O [glycine, Glycine, reference compound]",collagen production (collagen levels secreted into the media),[1],most effectively increased collagen; also recorded: enhanced collagen production
same,collagen production,"[1]; HDF, 3 and 5 mM",significantly reduced
"NCC(=O)NCC(=O)O [glycyl glycine, reference compound] (H-Gly-Gly-OH)",collagen production (collagen levels secreted into the media),[1],did not affect collagen production
NCC(=O)NCC(=O)O [glycylglycine] (H-Gly-Gly-OH),collagen production (collagen levels secreted into the media),[1],promoted collagen production
same,collagen production,"[1]; HDF, 0.25 mM",increased collagen production
same,collagen production,"[1]; HDF, 1-2 mM",greatest enhancement of collagen production
same,collagen production,"[1]; HDF, 3 and 5 mM",slightly reduced
"Cl.NC(=O)[C@@H](N)Cc1c[nH]cn1 [histidinamide, L-Histidinamide HCl]",collagen production (collagen levels secreted into the media),[1],no significant effect
"CC[C@H](C)[C@H](N)C(N)=O.Cl [isoleucinamide, L-Isoleucinamide HCl]",collagen production (collagen levels secreted into the media),[1],enhanced the collagen levels
"CC[C@H](C)[C@H](N)C(=O)O [isoleucine, L-Isoleucine, reference compound]",collagen production (collagen levels secreted into the media),[1],increased collagen
"CC(C)C[C@H](N)C(N)=O.Cl [leucinamide, L-Leucinamide HCl]",collagen production (collagen levels secreted into the media),[1],enhanced the collagen levels
"CC(C)C[C@H](N)C(=O)O [leucine, L-Leucine, reference compound]",collagen production (collagen levels secreted into the media),[1],increased collagen
"Cl.Cl.NCCCC[C@H](N)C(N)=O [lysinamide, L-Lysinamide diHCl]",collagen production (collagen levels secreted into the media),[1],no significant effect
same,cell viability,[2],reducing effect
C[C@H]1[C@H](C)CC[C@]2(C(=O)O)CC[C@]3(C)C(=CC[C@@H]4[C@@]5(C)C[C@@H](O)[C@H](O)[C@@](C)(CO)[C@@H]5[C@H](O)C[C@]43C)[C@H]12 [madecassic acid],collagen production,"[1]; HDF, 10 μM",decreased
same,concentrations that reduced cell viability,[3],above 300 μM
same,concentrations with no effect on cell viability,[3],below 100 μM
"CSCC[C@H](N)C(N)=O.Cl [methioninamide, L-Methioninamide HCl]",collagen production (collagen levels secreted into the media),[1],enhanced the collagen levels
"Cl.NC(=O)[C@@H](N)Cc1ccccc1 [phenylalaninamide, L-Phenylalaninamide HCl]",collagen production (collagen levels secreted into the media),[1],enhanced the collagen levels
"Cl.NC(=O)[C@@H]1CCCN1 [prolinamide, L-Prolinamide HCl]",collagen production (collagen levels secreted into the media),[1],enhanced the collagen levels
"O=C(O)[C@@H]1CCCN1 [proline, L-Proline, reference compound]",collagen production (collagen levels secreted into the media),[1],increased collagen
"Cl.NC(=O)[C@@H](N)CO [serinamide, L-Serinamide HCl]",collagen production (collagen levels secreted into the media),[1],no significant effect
"C[C@@H](O)[C@H](N)C(N)=O.Cl [threoninamide, L-Threoninamide HCl]",collagen production (collagen levels secreted into the media),[1],enhanced the collagen levels
"Cl.NC(=O)[C@@H](N)Cc1c[nH]c2ccccc12 [tryptophanamid, L-Tryptophanamide HCl]",collagen production (collagen levels secreted into the media),[1],no significant effect
"Cl.NC(=O)[C@@H](N)Cc1ccc(O)cc1 [tyrosinamide, L-Tyrosinamide HCl]",collagen production (collagen levels secreted into the media),[1],enhanced the collagen levels
"CC(C)[C@H](N)C(N)=O.Cl [valinamide, L-Valinamide HCl]",collagen production (collagen levels secreted into the media),[1],enhanced the collagen levels
madecassoside [reference compound],collagen production,"[1]; HDF, 10 μM",no significant effect
same,concentrations at which collagen production increased,"[1]; HDF, non-cytotoxic concentrations (FIG. 10b)",100 µM
